Source: ChEMBL document CHEMBL3751691, “A Journey around the Medicinal Chemistry of Hepatitis C Virus Inhibitors Targeting NS4B: From Target to Preclinical Drug Candidates” (J Med Chem, 2016)
pEC50, pKd, pKi: −log10 of the molar value. One block for each compound: values may come before it.

What was measured:
[1] = test system: Hepatitis C virus; test: Antiviral activity against HCV genotype 1b infected in human Huh7 cells assessed as inhibition of viral replication by luciferase reporter-based viral replicon assay; format: functional, organism-based, Hepacivirus hominis; conditions: Huh-7
[2] = Ratio of drug level in liver to plasma in CRL-CD-BR rat; format: ADME, cell-free
[3] = Ratio of plasma concentration in CRL-CD-BR rat at 8 hrs to EC50 for antiviral activity against HCV genotype 1b; format: ADME, cell-free
[4] = Ratio of plasma concentration in cynomolgus monkey at 8 hrs to EC50 for antiviral activity against HCV genotype 1b; format: ADME, cell-free
[5] = Ratio of drug level in brain to plasma in CRL-CD-BR rat; format: ADME, cell-free; conditions: read-out: BPR
[6] = Ratio of plasma concentration in beagle dog at 8 hrs to EC50 for antiviral activity against HCV genotype 1b; format: ADME, cell-free
[7] = test system: Hepatitis C virus; test: Antiviral activity against HCV genotype 1b infected in Huh7.5 cells assessed as inhibition of viral replication at 72 hrs by luciferase reporter-based viral replicon assay; format: functional, organism-based, Hepacivirus hominis; conditions: Huh7.5, 72 h
[8] = Binding affinity to […] by fluorescence assay; parameters: species or system Hepacivirus hominis
[9] = test system: Hepatitis C virus; test: Antiviral activity against HCV genotype 1b infected in human Huh7 cells assessed as inhibition of viral replication after 72 hrs by ELISA; format: functional, organism-based, Hepacivirus hominis; conditions: Huh-7, 72 h
[10] = test system: Hepatitis C virus; test: Antiviral activity against HCV genotype 1b; format: functional, organism-based, Hepacivirus hominis
[11] = Inhibition of HCV NS3/4A protease; parameters: species or system Hepacivirus hominis
[12] = Cytotoxicity against human Huh7.5 cells infected with HCV genotype 1b after 24 hrs by Cell Titer-Glo assay; format: cell-based, Huh-7
[13] = test system: Hepatitis C virus; test: Antiviral activity against HCV genotype 1b infected in human Huh7.5 cells assessed as inhibition of viral replication after 24 hrs by renilla luciferase reporter-based viral replicon assay; format: functional, organism-based, Hepacivirus hominis; conditions: Huh-7, 24 h
[14] = test system: Hepatitis C virus; test: Antiviral activity against HCV genotype 3a infected in human Huh7 cells assessed as inhibition of viral replication by luciferase reporter-based viral replicon assay; format: functional, organism-based, Hepacivirus hominis; conditions: Huh-7
[15] = test system: Hepatitis C virus; test: Antiviral activity against HCV genotype 2a (JFH-1) infected in human Huh7 cells assessed as inhibition of viral replication by luciferase reporter-based viral replicon assay; format: functional, organism-based, Hepacivirus hominis; conditions: JFH-1, Huh-7
[16] = test system: Hepatitis C virus; test: Antiviral activity against HCV genotype 1a (H77) infected in human Huh7 cells assessed as inhibition of viral replication by luciferase reporter-based viral replicon assay; format: functional, organism-based, Hepacivirus hominis; conditions: genotype 1a H77, Huh-7
[17] = test system: Hepatitis C virus; test: Antiviral activity against HCV genotype 2b infected in human Huh7 cells assessed as inhibition of viral replication by luciferase reporter-based viral replicon assay; format: functional, organism-based, Hepacivirus hominis; conditions: Huh-7
[18] = test system: Hepatitis C virus; test: Antiviral activity against HCV genotype 6o infected in human Huh7 cells assessed as inhibition of viral replication by luciferase reporter-based viral replicon assay; format: functional, organism-based, Hepacivirus hominis; conditions: subtype 6, Huh-7
[19] = test system: Hepatitis C virus; test: Antiviral activity against HCV genotype 4a infected in human Huh7 cells assessed as inhibition of viral replication by luciferase reporter-based viral replicon assay; format: functional, organism-based, Hepacivirus hominis; conditions: Huh-7
[20] = test system: Hepatitis C virus; test: Antiviral activity against HCV genotype 5a infected in human Huh7 cells assessed as inhibition of viral replication by luciferase reporter-based viral replicon assay; format: functional, organism-based, Hepacivirus hominis; conditions: Huh-7
[21] = test system: Hepatitis C virus; test: Antiviral activity against HCV genotype 6a infected in human Huh7 cells assessed as inhibition of viral replication by luciferase reporter-based viral replicon assay; format: functional, organism-based, Hepacivirus hominis; conditions: Huh-7
[22] = Binding affinity to HCV NS4B […] by quantitative PCR analysis; parameters: species or system Hepacivirus hominis
[23] = Cytotoxicity against human HuH7 cells by Cell Titer-Glo assay; format: cell-based, Huh-7
[24] = test system: Hepatitis C virus; test: Antiviral activity against HCV genotype 2a; format: functional, organism-based, Hepacivirus hominis
[25] = test system: Hepatitis C virus; test: Antiviral activity against HCV genotype 1a infected in Huh7.5 cells assessed as inhibition of viral replication after 24 hrs by renilla luciferase reporter-based viral replicon assay; format: functional, organism-based, Hepacivirus hominis; conditions: subtype 1a, Huh7.5, 24 h
[26] = test system: Hepatitis C virus; test: Antiviral activity against HCV genotype 1b after 3 days by luciferase reporter assay; format: functional, organism-based, Hepacivirus hominis; conditions: 72 h
[27] = test system: Hepatitis C virus; test: Antiviral activity against HCV genotype 1a infected in human Huh7 cells assessed as inhibition of viral replication by luciferase reporter-based viral replicon assay; format: functional, Hepacivirus hominis; conditions: subtype 1a, Huh-7
[28] = test system: Hepatitis C virus; test: Antiviral activity against HCV genotype 1a infected in Huh7 cells assessed as inhibition of viral replication after 48 hrs by luciferase reporter-based viral replicon assay; format: functional, organism-based, Hepacivirus hominis; conditions: subtype 1a, Huh-7, 48 h
[29] = Cytotoxicity against human HuH7 cells infected with HCV genotype 1b after 48 hrs by WST-1 assay; format: cell-based, Huh-7
[30] = test system: Hepatitis C virus; test: Antiviral activity against HCV genotype 1b infected in Huh7 cells assessed as inhibition of viral replication after 48 hrs by luciferase reporter-based viral replicon assay; format: functional, organism-based, Hepacivirus hominis; conditions: Huh-7, 48 h
[31] = test system: Hepatitis C virus; test: Antiviral activity against HCV infected in human HuH7 cells assessed as inhibition of viral replication after 72 hrs by ELISA-based viral replicon assay; format: functional, organism-based, Hepacivirus hominis; conditions: Huh-7, 72 h
[32] = Cytotoxicity against human HuH7 cells infected with HCV after 72 hrs by crystal violet-based assay; format: cell-based; conditions: huh-7, 72 h

Structure (SMILES): CCc1cc2c(cc1F)c(C#N)c(-c1ccc(S(=O)(=O)N[C@@H](C)C(F)(F)F)cn1)n2-c1ncccn1
- Kp [2]: 25
- Ratio [3]: 325
- Ratio [4]: 50
- Kp [5]: 0.22
- Ratio [6]: 460

Structure (SMILES): Clc1ccc(Cn2nc(OCCCN3CCCC3)c3ccccc32)cc1
- pEC50 [7]: 5.43

Structure (SMILES): CCCCc1c(C)nn(-c2nnc3c4ccccc4n(CC)c3n2)c1C
- pKd [8]: 5.92
- pEC50 [9]: 5.95

Structure (SMILES): O=C(NCc1cccs1)c1nn2c(c1Cl)NC(c1ccco1)CC2C(F)(F)F (racemic)
- CC50 at 24 h [12]: > 100000 nM
- pEC50 [13]: 5.75

Structure (SMILES): O=C(c1ccccc1)N1CCC2(CCCN(c3ncc(-c4ccccc4)c(-c4ccc(Cl)cc4)n3)C2)CC1
- pEC50 [14]: 7.36
- pEC50 [15]: 5.12
- pEC50 [16]: 6.10
- pEC50 [17]: 5.66
- pEC50 [1]: 7.70
- pEC50 [18]: 5.02
- pEC50 [19]: 6.70
- pEC50 [20]: 7.58
- pEC50 [21]: 6.10
- pKd [22]: 7.34
- CC50 [23]: > 43000 nM

Structure (SMILES): CC(C)C[C@H]1CN(C(=O)/C=C/c2ccc(Cl)cc2)[C@@H](CC(C)C)C(=O)N1
- EC90 [1]: 1600 nM

Structure (SMILES): CC(C)CN(C)c1nc(N)c(C(=O)N=C(N)N)nc1Cl [5-(N-METHYL-N-ISOBUTYL)AMILORIDE]
- pEC50 [10]: 5.60
- pEC50 [24]: 5.43

Structure (SMILES): CC(C)C[C@H]1CN(C/C=C/c2ccccc2)[C@@H](CC(C)C)C(=O)N1
- EC90 [1]: 3300 nM

Structure (SMILES): CC(C)C[C@H]1C(=O)N[C@@H](c2ccccc2)CN1C(=O)c1cc(-c2ccc(F)cc2)on1
- EC90 [1]: 60 nM

Structure (SMILES): CC(C)c1ccc(NC(=O)c2ccccc2)cc1
- pKd [8]: 5.16
- pEC50 [9]: 5.55

Structure (SMILES): O=C(NCc1cccs1)c1nn2c(c1Cl)N[C@H](c1ccco1)C[C@@H]2C(F)(F)F
- CC50 at 24 h [12]: > 100000 nM
- pEC50 [25]: 6.21
- pEC50 [13]: 6.20

Structure (SMILES): CC(C)C[C@H]1C(=O)N[C@@H](c2cccs2)CN1C(=O)c1cc(-c2ccc(F)cc2)on1
- EC90 [27]: 22 nM
- EC90 [1]: 6 nM

Structure (SMILES): O=C(NCc1cccs1)c1cc2nc(-c3ccco3)cc(C(F)(F)Cl)n2n1 [ANGUIZOLE]
- pEC50 [28]: 6.25
- CC50 at 48 h [29]: > 50000 nM
- pKd [8]: 6.18
- pEC50 [30]: 6.51
- pEC50 [31]: 6.20
- CC75 [32]: > 100000 nM

Further lines, results first:

- EC90 [1]: > 10000 nM
Structure (SMILES): CC(C)C[C@H]1CN(C(=O)/C=C/c2ccc([N+](=O)[O-])cc2)[C@@H](CC(C)C)C(=O)N1

- EC90 [1]: > 10000 nM
Structure (SMILES): CC(C)C[C@H]1CN(C(=O)c2cccc(-c3ccccc3)c2)[C@@H](CC(C)C)C(=O)N1

- pEC50 [10]: 6.46
- pKi [11]: 8.15
Structure (SMILES): CCC[C@H](NC(=O)[C@@H]1[C@H]2CCC[C@H]2CN1C(=O)[C@@H](NC(=O)[C@@H](NC(=O)c1cnccn1)C1CCCCC1)C(C)(C)C)C(=O)C(=O)NC1CC1

- EC90 [1]: 2300 nM
Structure (SMILES): CC(C)C[C@H]1CN(C(=O)/C=C/c2ccccc2)[C@@H](CC(C)C)C(=O)N1

- pKd [8]: 6.52
- pEC50 [9]: 6.15
Structure (SMILES): COC(=O)c1c(NC(=O)Cc2cccs2)sc(C(=O)Nc2ccc(Cl)cc2)c1C

- EC90 [1]: > 10000 nM
Structure (SMILES): CC(C)C[C@H]1CN(C(=O)c2cc(-c3ccccc3)[nH]n2)[C@@H](CC(C)C)C(=O)N1

- EC90 [1]: 1300 nM
Structure (SMILES): COc1ccc(-c2cc(C(=O)N3C[C@H](CC(C)C)NC(=O)[C@@H]3CC(C)C)no2)cc1

- pEC50 [26]: 9.68
Structure (SMILES): Cc1cnc(C(=O)N[C@H]2CCCCC/C=C\[C@@H]3C[C@@]3(C(=O)NS(=O)(=O)C3CC3)NC(=O)[C@@H]3C[C@@H](Oc4nc5ccccc5c5ccccc45)CN3C2=O)cn1

- EC90 [1]: 130 nM
Structure (SMILES): CC(C)C[C@H]1CN(C(=O)c2cc(-c3ccc(F)cc3)on2)[C@@H](CC(C)C)C(=O)N1

- EC90 [1]: 1400 nM
Structure (SMILES): CC(C)C[C@H]1CN(C(=O)c2noc(-c3ccccc3)n2)[C@@H](CC(C)C)C(=O)N1

- EC90 [1]: 100 nM
Structure (SMILES): CCC[C@H]1CN(C(=O)c2cc(-c3ccc(F)cc3)on2)[C@@H](CC(C)C)C(=O)N1

- EC90 [1]: 1100 nM
Structure (SMILES): CC(C)C[C@H]1CN(C(=O)c2cc(-c3ccccc3)on2)[C@@H](CC(C)C)C(=O)N1
